This note sets out measurements from the SangsterLogP compilation.

By logP is commonly meant a log measure of how a compound divides between an organic and an aqueous phase. Read a high logP as a more lipophilic compound. For orientation: logD means the decadic logarithm of the distribution of all forms, ionised or not, between an organic phase and buffer at a given pH.

Experiment in one data set: not given
Settings: not given
In turn, `Cn1c(=O)nc(-c2ccccc2)c2ccc(Cl)cc21` gave a log partition coefficient (logP) of 2.36.
Same read-out and setting: in the case of `Cn1c(=O)nc(-c2ccccc2)c2cc(Cl)ccc21` it was 2.38; in that of `Cn1c(=O)nc(-c2ccccc2)c2cc(C(F)(F)F)ccc21`, 2.69.
Still for that read-out and setting: to `COc1ccc2c(c1)c(-c1ccccc1)nc(=O)n2C` belongs 1.91.
The compound `Cn1c(=O)nc(-c2ccccc2)c2cc(F)ccc21` yielded a log partition coefficient (logP) of 1.87.
The same measure, in the same setting: to `Cn1c(=O)nc(-c2ccccc2)c2cc(S(C)(=O)=O)ccc21` belongs 0.59.

Experiment in a further data set: not given
Settings: not given
This is another data set of the same source.
The compound `c1ccc2c(c1)ccc1nc3ccc4ccccc4c3cc12` yielded a logP of 5.31.
Still for that read-out and setting: in the case of `c1ccc2nc3ccc4ccccc4c3cc2c1` it was 4.27; in that of `c1ccc2c(c1)ccc1nc3c(ccc4ccccc43)cc12`, 5.38; in that of `c1cnc2c(c1)cc1ccc3cccc4ccc2c1c34`, 5.35.
`c1ccc2c(c1)Cc1cccnc1-2` came in with a logP of 2.78.
Same read-out and setting: to `c1ccc2c(c1)cnc1ccccc12` belongs 3.3.

A short description of the next data set: method code SF-AS, from PMID: 7149911. As to conditions: pH 8.9.
`CN(N=O)C(=O)Nc1ccccc1`: the logD worked out at 1.72.
For `CCN(N=O)C(=O)Nc1ccccc1`, the logD was determined as 2.25.
On the same count and under the same terms, in the case of `CN(N=O)C(=O)N(C)c1ccccc1` it was 1.58.

Experiment in the next data set: not given
Settings: not given
This is another data set of the same source.
In turn, `CCN(CC)CCNC(=O)c1ccc(NS(C)(=O)=O)cc1` yielded a logP of 1.36.
On the same count and under the same terms, to `Cc1ccccc1N1C(=O)c2cc(S(N)(=O)=O)c(Cl)cc2NC1C` (stereo unspecified) belongs 1.8.
The same measure, in the same setting: in the case of `CC(C)NCC(O)c1ccc(NS(C)(=O)=O)cc1` (stereo unspecified) it was 0.53; in that of `COc1ccc(CCN(C)CCCC2(c3ccc(OC)c(OC)c3)S(=O)(=O)CCCS2(=O)=O)cc1OC`, 2.6.
Still for that read-out and setting: to `Cc1ccccc1OCC(O)CNCCOc1ccc(C(N)=O)cc1` (stereo unspecified) belongs 2.19.
The compound `CCC(=O)C(CC(C)N(C)C)(c1ccccc1)c1ccccc1` (stereo unspecified) yielded a lipophilicity (logP) of 3.93.

Another data set in a line: method code SF-AS, from DOI: 10.1584/jpestics.8.69.
Settings: not given
As for `ClC(Cl)(Cl)C(c1ccccc1)c1ccccc1`, the logP amounted to 4.87.
Consider `COc1ccc(C(c2ccc(OC)cc2)C(C)[N+](=O)[O-])cc1` (stereo unspecified), for which the lipophilicity (logP) stood at 3.87.
Same read-out and setting: in the case of `COc1ccc(C(c2ccc(OC)cc2)C(F)(F)F)cc1` it was 4.76; in that of `COc1ccc(C(C)c2ccc(OC)cc2)cc1`, 4.52.
`COc1ccc(C(C[N+](=O)[O-])c2ccc(OC)cc2)cc1` gave a logP of 3.57.
As to `CCC(C(c1ccc(OC)cc1)c1ccc(OC)cc1)[N+](=O)[O-]` (stereo unspecified), the logP is 4.45.

The next data set in a line: method code SF-AS, from DOI: 10.1016/s0020-1693(00)85781-3.
Settings: not given
In the case of `CC(C)(C)c1ccc2c(c1)COCCOCCOCCOCCOCc1cc(C(C)(C)C)ccc1COCCOCCOCCOCCOC2`, the log partition coefficient (logP) turned out to be 3.32.
Turning to `c1ccc2c(c1)COCCOCCOCCOCCOCc1ccccc1COCCOCCOCCOCCOC2`, the logP amounted to 1.84.
The same measure, in the same setting: to `O=C(O)c1ccc2c(c1)COCCOCCOCCOCCOCCOC2` belongs -0.28; to `c1ccc2c(c1)COCCOCCOCCOCCOC2`, 0.7; to `CC(=O)c1ccc2c(c1)COCCOCCOCCOCCOCCOC2`, -0.05.
On the same count and under the same terms, to `c1ccc2c(c1)COCCOCCOCCOCCOCCOC2` belongs 0.15.

A further data set can be described thus: method code SF-HPLC, from DOI: 10.1016/0378-5173(88)90064-6. To be noted: pH 7.4.
As for `CN(C)C(=O)COC(=O)c1ccccc1O`, the logD came out at 1.21.
As for `CCN(CC)C(=O)COC(=O)c1ccccc1O`, the log distribution coefficient (logD) was determined as 1.99.
As to `CC(=O)c1ccc2cc(C(C)C(=O)OCC(=O)N(C)CC(N)=O)ccc2c1` (stereo unspecified), the log distribution coefficient (logD) came out at 1.37.
Same read-out and setting: in the case of `CCN(CC)C(=O)COC(=O)C(C)c1ccc2cc(C(C)=O)ccc2c1` (stereo unspecified) it was 3.32; in that of `CC(=O)c1ccc2cc(C(C)C(=O)OCC(N)=O)ccc2c1` (stereo unspecified), 2.06; in that of `CC(=O)c1ccc2cc(C(C)C(=O)OCC(=O)N(CCO)CCO)ccc2c1` (stereo unspecified), 1.7.

The nature of the next data set: method code SF, from DOI: 10.1021/jm00294a005, PMID: 5000561.
Settings: not given
Consider `CO[C@@H]1[C@@H](O[C@@H]2O[C@H](C)[C@@H](O[C@H]3C[C@@](C)(O)[C@@H](OC(C)=O)[C@H](C)O3)[C@H](N(C)C)[C@H]2O)[C@@H](CC=O)C[C@@H](C)[C@@H](O)/C=C/C=C/C[C@@H](C)OC(=O)C[C@H]1OC(C)=O`, for which the lipophilicity (logP) worked out at 0.88.

Another data set can be described thus: method code SF, from DOI: 10.1023/a:1016286026462, PMID: 8570535.
Settings: not given
In turn, `CC(C)c1ccc(C(=O)CC(=O)c2ccccc2)cc1` displayed a logP of 6.51.
The same measure, in the same setting: to `Cc1ccc(C=C2C(=O)[C@]3(C)CCC2C3(C)C)cc1` belongs 5.13.
The same measure, in the same setting: to `CCCCOC(=O)c1ccccc1C(=O)OCCCC` belongs 4.39; to `CCCCCCCCOC(=O)c1ccc(N(C)C)cc1`, 5.75.
In turn, `COc1cc(C(C)(C)C)c(O)c(C(C)(C)C)c1` displayed a logP of 4.64.
On the same count and under the same terms, to `COc1ccc(C(=O)c2ccccc2)c(O)c1` belongs 3.82.

A further data set can be described thus: method code SF-AS, from DOI: 10.1248/bpb1978.7.120, PMID: 6427444.
Settings: not given
`CCCCCCCCCOC(=O)N1[C@H]2[C@@H]1CN1C3=C(C(=O)C(N)=C(C)C3=O)[C@@H](COC(N)=O)[C@@]21OC` yielded a lipophilicity (logP) of 3.56.
In turn, `CCCCCOC(=O)N1C2CN3C4=C(C(=O)C(N)=C(C)C4=O)C(COC(N)=O)C3(OC)C21` (stereo unspecified) came in with a logP of 2.45.
On the same count and under the same terms, to `COC12C(COC(N)=O)C3=C(C(=O)C(C)=C(N)C3=O)N1CC1C2N1C(=O)Cc1ccccc1` (stereo unspecified) belongs 1.54; to `COC12C(COC(N)=O)C3=C(C(=O)C(C)=C(N)C3=O)N1CC1C2N1C(=O)OC1CCC2=CCC3C(CCC4(C)C(C(C)CCCC(C)C)CCC34)C2(C)CC1` (stereo unspecified), 3.88.
On the same count and under the same terms, in the case of `COC12C(COC(N)=O)C3=C(C(=O)C(C)=C(N)C3=O)N1CC1C2N1C(=O)OCc1ccccc1` (stereo unspecified) it was 2.05; in that of `CCCOC(=O)N1C2CN3C4=C(C(=O)C(N)=C(C)C4=O)C(COC(N)=O)C3(OC)C21` (stereo unspecified), 1.51.

The next data set is described as follows: method code SF-AS, from DOI: 10.1016/0304-4165(87)90236-4, PMID: 2889474.
Settings: not given
Compound `C=C1C(=O)O[C@@H]2C[C@@H](C)[C@@H]3C=CC(=O)[C@@]3(C)[C@@H](OC(=O)CC(=O)O[C@H]3[C@@H]4C(=C)C(=O)O[C@@H]4C[C@@H](C)[C@@H]4C=CC(=O)[C@]43C)[C@H]12` yielded a logP of 1.33.
Same read-out and setting: in the case of `CC1=C2[C@@H](C[C@@H](C)[C@@H]3C=CC(=O)[C@@]3(C)[C@H]2O)OC1=O` it was 1.13; in that of `C=C1C(=O)O[C@@H]2C[C@@H](C)[C@@H]3C4CC(=O)[C@]3(C[C@H]12)[C@@]1(C4)C(=O)O[C@@H]2C[C@@H](C)[C@@H]3C=CC(=O)[C@@]3(C)[C@@H](O)[C@@H]21`, 1.66.
Same read-out and setting: to `C[C@@H]1C[C@H]2OC(=O)[C@@H](C)[C@H]2[C@H](O)[C@]2(C)C(=O)C=C[C@@H]12` belongs 0.53; to `C=C1C(=O)O[C@@H]2C[C@@H](C)[C@@H]3C=CC(=O)[C@@]3(C)[C@@H](OC(=O)CCCC(=O)O[C@H]3[C@@H]4C(=C)C(=O)O[C@@H]4C[C@@H](C)[C@@H]4C=CC(=O)[C@]43C)[C@H]12`, 1.37.
On the same count and under the same terms, in the case of `CC1CC2OC(=O)C3(C)C2C(OC3(C)O)C2(C)C(=O)C=CC12` (stereo unspecified) it was 0.3.

A further data set can be described thus: method code SF-HPLC, from DOI: 10.1016/0731-7085(91)80215-u, PMID: 1821151. As to conditions: pH 7.4.
Consider `CCCCC(=O)OCC(c1cncn1C)C(CC)C(=O)OCC1CCCCC1` (stereo unspecified), for which the logD came out at 5.56.
Still for that read-out and setting: to `CCC(C(=O)OCc1ccccc1)C(COC(=O)c1cccc(Cl)c1)c1cncn1C` (stereo unspecified) belongs 5.64; to `CCCCC(=O)OCC(c1cncn1C)C(CC)C(=O)OCc1ccccc1` (stereo unspecified), 4.43; to `CCC(C(=O)OCc1ccccc1)C(COC(=O)c1ccccc1)c1cncn1C` (stereo unspecified), 4.57.
Same read-out and setting: to `CCC(=O)OCC(c1cncn1C)C(CC)C(=O)OCc1ccccc1` (stereo unspecified) belongs 3.3.
Same read-out and setting: in the case of `CCC(C(=O)OCc1ccccc1)C(COC(C)=O)c1cncn1C` (stereo unspecified) it was 2.87.

A further data set can be described thus: method code SF-HPLC, from DOI: 10.1016/s0006-2952(00)00420-2, PMID: 10974206.
Settings: not given
`C[N+](C)([O-])CCCNc1c2ccccc2nc2cccc([N+](=O)[O-])c12` returned a logP of 1.4.
The same measure, in the same setting: to `CN(C)CCCNc1c2ccccc2[n+]([O-])c2ccccc12` belongs 2.5.
Still for that read-out and setting: to `C[N+](C)([O-])CCCNc1c2ccccc2nc2ccccc12` belongs 0.4; to `CN(C)CCCNc1c2ccccc2nc2ccccc12`, 3.6; to `CN(C)CCCNc1c2ccccc2nc2cccc([N+](=O)[O-])c12`, 3.8.
Still for that read-out and setting: in the case of `CN(C)CCCNc1c2ccccc2[n+]([O-])c2cccc([N+](=O)[O-])c12` it was 3.1.

The next data set in a line: method code …, from Wiggins, H.; Karcher, A.; Michael Wilson, J.; Robb, I. (2008). Determining Octanol/Water Partitioning Coefficients for Industrial Surfactants. Proc. 15th Annual International Petroleum & Biofuels ….
Settings: not given
With `CCCCCCCCOCCOCCOCCO`, the logP came to 2.84.
As to `CCCCCCCCOCCOCCOCCOCCOCCO`, the logP worked out at 2.43.
On the same count and under the same terms, to `CCCCCCCCCCCCOCCOCCOCCOCCOCCOCCOCCO` belongs 4.59.
Still for that read-out and setting: in the case of `CCCCCCCCCCOCCOCCOCCOCCOCCOCCOCCOCCO` it was 3.09; in that of `CCCCCCOCCOCCOCCOCCOCCO`, 1.24.
`CCCCCCCCCCCCCCOCCOCCOCCOCCOCCOCCOCCOCCO` came in with a logP of 5.65.
